Reference: PMC5428509, “Irreversible inhibition of BTK kinase by a novel highly selective inhibitor CHMFL-BTK-11 suppresses inflammatory response in rheumatoid arthritis model” (Scientific Reports, 2017)

How the values were obtained:
Test in all cases: biochemical
Design in all cases: KinomeScan competition binding panel (DiscoveRx), percent of control at 1 uM
Conditions in all cases: read-out: Percent Control
BRK = molecular target: T1, BRK (Homo sapiens, UniProt Q13882)
T1 construct: gene PTK6
T1 sequence (Q13882 whole entry): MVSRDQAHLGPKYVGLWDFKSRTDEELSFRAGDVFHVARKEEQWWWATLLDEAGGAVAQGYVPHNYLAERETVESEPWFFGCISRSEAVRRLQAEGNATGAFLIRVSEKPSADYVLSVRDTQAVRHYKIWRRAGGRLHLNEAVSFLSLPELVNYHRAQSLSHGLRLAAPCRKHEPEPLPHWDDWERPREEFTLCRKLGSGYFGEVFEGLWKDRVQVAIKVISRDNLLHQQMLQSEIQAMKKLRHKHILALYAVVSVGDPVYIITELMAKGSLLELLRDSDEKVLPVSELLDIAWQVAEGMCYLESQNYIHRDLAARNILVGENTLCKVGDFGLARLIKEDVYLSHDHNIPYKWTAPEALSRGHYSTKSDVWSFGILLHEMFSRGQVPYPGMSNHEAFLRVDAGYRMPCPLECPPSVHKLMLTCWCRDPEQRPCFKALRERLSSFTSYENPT
Outline: (§1)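 Selectivity profiled across 456 kinases/mutants by KinomeScan binding technology.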

PDPK1 = PDPK1 (Homo sapiens, UniProt O15530)
Outline: as §1

CDKL5 = CDKL5 (Homo sapiens, UniProt O76039)
Outline: as §1

RIPK5 = molecular target: T2, RIPK5 (Homo sapiens, UniProt Q6XUX3)
T2 construct: gene DSTYK
Outline: as §1

NEK7 = NEK7 (Homo sapiens, UniProt Q8TDX7)
Outline: as §1

MAP4K3 = MAP4K3 (Homo sapiens, UniProt Q8IVH8)
Chain of MAP4K3 (Q8IVH8 whole entry): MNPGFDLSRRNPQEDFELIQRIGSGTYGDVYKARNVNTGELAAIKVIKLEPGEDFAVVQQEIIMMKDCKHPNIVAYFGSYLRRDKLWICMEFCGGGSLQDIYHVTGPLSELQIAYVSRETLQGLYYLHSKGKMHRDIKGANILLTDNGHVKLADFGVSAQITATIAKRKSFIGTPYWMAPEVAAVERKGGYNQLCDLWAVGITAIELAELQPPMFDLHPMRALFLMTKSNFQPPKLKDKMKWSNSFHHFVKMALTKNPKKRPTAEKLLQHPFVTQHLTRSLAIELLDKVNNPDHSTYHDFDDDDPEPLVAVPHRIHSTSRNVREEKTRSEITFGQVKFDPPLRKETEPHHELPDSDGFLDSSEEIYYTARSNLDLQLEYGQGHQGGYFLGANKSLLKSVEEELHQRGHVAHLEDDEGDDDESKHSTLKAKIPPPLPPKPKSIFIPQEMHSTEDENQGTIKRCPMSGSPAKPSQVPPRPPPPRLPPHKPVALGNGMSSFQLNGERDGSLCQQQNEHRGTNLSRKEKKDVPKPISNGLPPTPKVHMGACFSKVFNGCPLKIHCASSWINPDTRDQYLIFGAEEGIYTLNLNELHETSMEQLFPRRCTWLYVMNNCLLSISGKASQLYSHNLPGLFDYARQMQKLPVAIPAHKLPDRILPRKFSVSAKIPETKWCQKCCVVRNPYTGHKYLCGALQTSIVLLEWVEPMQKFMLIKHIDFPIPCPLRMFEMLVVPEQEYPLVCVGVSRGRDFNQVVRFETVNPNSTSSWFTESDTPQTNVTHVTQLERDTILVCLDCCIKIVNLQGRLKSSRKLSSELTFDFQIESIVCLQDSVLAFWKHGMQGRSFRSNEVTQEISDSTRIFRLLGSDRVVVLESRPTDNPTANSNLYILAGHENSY
Outline: as §1

MYO3B = MYO3B (Homo sapiens, UniProt Q8WXR4)
Outline: as §1

CAMK2D = CAMK2D (Homo sapiens, UniProt Q13557)
Chain of CAMK2D (Q13557 whole entry): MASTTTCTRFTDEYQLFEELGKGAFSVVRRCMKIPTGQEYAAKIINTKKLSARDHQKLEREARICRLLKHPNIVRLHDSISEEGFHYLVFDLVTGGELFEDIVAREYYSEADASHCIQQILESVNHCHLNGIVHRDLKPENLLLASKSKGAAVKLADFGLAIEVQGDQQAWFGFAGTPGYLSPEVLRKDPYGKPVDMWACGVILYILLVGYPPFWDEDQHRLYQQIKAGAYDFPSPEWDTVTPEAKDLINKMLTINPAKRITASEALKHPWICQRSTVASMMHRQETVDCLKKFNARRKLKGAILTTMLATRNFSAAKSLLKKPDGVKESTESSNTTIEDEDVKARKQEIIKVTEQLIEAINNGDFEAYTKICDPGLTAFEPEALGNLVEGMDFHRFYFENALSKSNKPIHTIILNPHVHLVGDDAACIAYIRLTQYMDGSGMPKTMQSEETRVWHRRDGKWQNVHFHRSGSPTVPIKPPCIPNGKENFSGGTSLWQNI
Outline: as §1

LCK = LCK (Homo sapiens, UniProt P06239)
Chain of LCK (P06239 whole entry): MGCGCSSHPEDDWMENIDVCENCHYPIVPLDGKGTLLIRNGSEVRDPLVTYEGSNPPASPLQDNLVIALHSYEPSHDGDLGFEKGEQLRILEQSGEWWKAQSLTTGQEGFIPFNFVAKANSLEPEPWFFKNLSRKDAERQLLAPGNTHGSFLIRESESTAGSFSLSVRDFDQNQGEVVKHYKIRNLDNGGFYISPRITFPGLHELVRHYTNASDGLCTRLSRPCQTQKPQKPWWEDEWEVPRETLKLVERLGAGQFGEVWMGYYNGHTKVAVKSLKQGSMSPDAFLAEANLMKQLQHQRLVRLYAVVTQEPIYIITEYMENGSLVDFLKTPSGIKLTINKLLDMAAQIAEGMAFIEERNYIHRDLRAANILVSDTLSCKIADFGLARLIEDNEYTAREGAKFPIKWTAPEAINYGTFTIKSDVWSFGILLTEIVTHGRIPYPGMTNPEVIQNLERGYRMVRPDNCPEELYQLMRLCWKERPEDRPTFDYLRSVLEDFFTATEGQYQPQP
Outline: as §1

AMPK-alpha1 = molecular target: T3, AMPK-alpha1 (Homo sapiens, UniProt Q13131)
T3 construct: gene PRKAA1
Outline: as §1

MAST1 = MAST1 (Homo sapiens, UniProt Q9Y2H9)
Outline: as §1

PRKX = PRKX (Homo sapiens, UniProt P51817)
Chain of PRKX (P51817 whole entry): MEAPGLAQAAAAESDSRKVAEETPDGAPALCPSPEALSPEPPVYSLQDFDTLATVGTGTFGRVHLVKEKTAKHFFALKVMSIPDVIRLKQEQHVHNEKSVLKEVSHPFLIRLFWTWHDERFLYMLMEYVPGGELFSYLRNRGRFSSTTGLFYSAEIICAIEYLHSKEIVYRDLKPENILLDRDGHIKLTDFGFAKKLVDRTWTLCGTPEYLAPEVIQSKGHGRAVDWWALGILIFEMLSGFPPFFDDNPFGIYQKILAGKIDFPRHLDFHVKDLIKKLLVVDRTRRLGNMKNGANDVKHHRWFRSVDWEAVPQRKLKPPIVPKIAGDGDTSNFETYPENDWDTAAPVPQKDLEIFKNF
Outline: as §1

PAK4 = PAK4 (Homo sapiens, UniProt O96013)
Outline: as §1

GRK4 = GRK4 (Homo sapiens, UniProt P32298)
Chain of GRK4 (P32298 whole entry): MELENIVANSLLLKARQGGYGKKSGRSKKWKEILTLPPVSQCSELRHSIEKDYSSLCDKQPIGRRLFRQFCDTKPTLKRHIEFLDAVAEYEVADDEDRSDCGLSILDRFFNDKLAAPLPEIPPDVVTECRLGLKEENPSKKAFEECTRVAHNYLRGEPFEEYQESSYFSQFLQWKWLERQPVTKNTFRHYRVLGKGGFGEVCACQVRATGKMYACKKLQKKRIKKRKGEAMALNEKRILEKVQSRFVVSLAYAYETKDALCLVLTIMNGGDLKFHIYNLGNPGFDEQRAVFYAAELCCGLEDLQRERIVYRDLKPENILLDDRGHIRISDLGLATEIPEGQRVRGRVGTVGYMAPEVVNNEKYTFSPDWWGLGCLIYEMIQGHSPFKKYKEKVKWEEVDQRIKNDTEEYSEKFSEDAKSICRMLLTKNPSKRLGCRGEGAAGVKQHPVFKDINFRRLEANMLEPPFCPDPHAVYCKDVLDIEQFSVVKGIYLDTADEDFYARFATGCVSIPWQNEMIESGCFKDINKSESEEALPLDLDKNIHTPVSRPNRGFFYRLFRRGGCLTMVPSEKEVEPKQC
Outline: as §1

RET(V804L) = RET(V804L) (Homo sapiens, UniProt P07949, V804L)
Outline: as §1

SBK1 = SBK1 (Homo sapiens, UniProt Q52WX2)
Chain of SBK1 (Q52WX2 whole entry): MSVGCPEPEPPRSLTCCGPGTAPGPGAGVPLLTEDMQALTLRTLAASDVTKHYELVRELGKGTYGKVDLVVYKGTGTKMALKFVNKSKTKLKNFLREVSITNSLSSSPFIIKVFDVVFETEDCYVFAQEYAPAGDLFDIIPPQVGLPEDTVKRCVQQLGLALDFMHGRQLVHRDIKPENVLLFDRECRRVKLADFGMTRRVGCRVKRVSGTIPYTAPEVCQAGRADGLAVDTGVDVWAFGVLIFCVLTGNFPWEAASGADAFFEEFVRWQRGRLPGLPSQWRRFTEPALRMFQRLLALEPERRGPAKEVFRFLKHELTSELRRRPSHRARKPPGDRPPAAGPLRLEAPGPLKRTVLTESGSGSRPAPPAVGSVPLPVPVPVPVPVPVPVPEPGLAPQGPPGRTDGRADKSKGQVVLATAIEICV
Outline: as §1

SRC = SRC (Homo sapiens, UniProt P12931)
Chain of SRC (P12931 whole entry): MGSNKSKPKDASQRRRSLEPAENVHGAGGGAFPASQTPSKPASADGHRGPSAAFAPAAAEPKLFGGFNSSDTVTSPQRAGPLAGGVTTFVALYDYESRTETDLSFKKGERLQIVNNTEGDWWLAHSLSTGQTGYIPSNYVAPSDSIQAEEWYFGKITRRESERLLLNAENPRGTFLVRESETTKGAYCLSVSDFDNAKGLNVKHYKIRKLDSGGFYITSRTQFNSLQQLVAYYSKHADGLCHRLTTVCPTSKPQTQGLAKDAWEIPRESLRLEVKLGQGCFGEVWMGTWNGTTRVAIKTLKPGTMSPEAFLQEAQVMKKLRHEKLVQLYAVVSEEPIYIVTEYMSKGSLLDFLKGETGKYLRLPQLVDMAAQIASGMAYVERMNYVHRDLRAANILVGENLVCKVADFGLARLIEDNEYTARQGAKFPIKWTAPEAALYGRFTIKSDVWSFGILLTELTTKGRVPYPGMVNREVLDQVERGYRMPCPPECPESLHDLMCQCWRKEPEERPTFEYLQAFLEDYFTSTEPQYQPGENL
Outline: as §1

IKK-beta = molecular target: T4, IKK-beta (Homo sapiens, UniProt O14920)
T4 construct: gene IKBKB
Outline: as §1

CDC2L1 = molecular target: T5, CDC2L1 (Homo sapiens, UniProt P21127)
T5 construct: gene CDK11B
Outline: as §1

ACVR1 = ACVR1 (Homo sapiens, UniProt Q04771)
Outline: as §1

IKK-alpha = molecular target: T6, IKK-alpha (Homo sapiens, UniProt O15111)
T6 construct: gene CHUK
T6 sequence (O15111 whole entry): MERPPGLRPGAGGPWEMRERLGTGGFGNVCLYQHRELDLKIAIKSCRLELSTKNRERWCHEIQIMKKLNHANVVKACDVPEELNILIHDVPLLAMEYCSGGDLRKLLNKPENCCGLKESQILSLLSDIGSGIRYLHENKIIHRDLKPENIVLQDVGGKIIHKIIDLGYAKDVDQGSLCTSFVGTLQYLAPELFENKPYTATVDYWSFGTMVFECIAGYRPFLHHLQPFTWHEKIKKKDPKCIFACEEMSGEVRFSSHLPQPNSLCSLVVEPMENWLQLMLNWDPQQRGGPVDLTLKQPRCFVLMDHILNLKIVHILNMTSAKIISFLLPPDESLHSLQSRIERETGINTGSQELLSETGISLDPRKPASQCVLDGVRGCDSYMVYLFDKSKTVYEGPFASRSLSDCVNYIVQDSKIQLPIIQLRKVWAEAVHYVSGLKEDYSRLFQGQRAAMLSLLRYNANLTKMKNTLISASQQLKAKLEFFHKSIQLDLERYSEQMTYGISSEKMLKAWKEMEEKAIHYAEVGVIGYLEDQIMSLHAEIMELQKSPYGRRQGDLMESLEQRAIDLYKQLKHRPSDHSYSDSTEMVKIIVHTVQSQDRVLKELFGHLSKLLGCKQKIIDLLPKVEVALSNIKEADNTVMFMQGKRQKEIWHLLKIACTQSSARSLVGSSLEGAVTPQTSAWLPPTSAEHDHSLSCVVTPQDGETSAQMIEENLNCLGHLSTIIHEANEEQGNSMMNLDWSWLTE
Outline: as §1

[1] = molecular target: T7, ABL1(H396P)-nonphosphorylated (Homo sapiens, UniProt P00519, H396P)
T7 construct: nonphosphorylated
Outline: as §1

DYRK1A = DYRK1A (Homo sapiens, UniProt Q13627)
Outline: as §1

[2] = molecular target: T8, ABL1(F317L)-nonphosphorylated (Homo sapiens, UniProt P00519, F317L)
T8 construct: nonphosphorylated
Outline: as §1

DYRK2 = DYRK2 (Homo sapiens, UniProt Q92630)
Outline: as §1

Q: With `C=CC(=O)Nc1cc(-n2c(=O)ccc3cnc4ccc(-n5cccn5)cc4c32)ccc1C` [CHMFL-BTK-11] as the compound, how does the remaining binding at 1 µM (BRK) read?
A: 100%

Q: What about the remaining binding at 1 µM (PDPK1) of the same compound?
A: 90%

Q: And the remaining binding at 1 µM (CDKL5)?
A: 100%

Q: What about the remaining binding at 1 µM (RIPK5) of the same compound?
A: 99%

Q: What about the remaining binding at 1 µM (NEK7) of the same compound?
A: 100%

Q: And the remaining binding at 1 µM (MAP4K3)?
A: 100%

Q: What about the remaining binding at 1 µM (MYO3B) of the same compound?
A: 90%

Q: What about the remaining binding at 1 µM (CAMK2D) of the same compound?
A: 80%

Q: And the remaining binding at 1 µM (LCK)?
A: 100%

Q: What about the remaining binding at 1 µM (AMPK-alpha1) of the same compound?
A: 100%

Q: What about the remaining binding at 1 µM (MAST1) of the same compound?
A: 100%

Q: And the remaining binding at 1 µM (PRKX)?
A: 100%

Q: What about the remaining binding at 1 µM (PAK4) of the same compound?
A: 95%

Q: What about the remaining binding at 1 µM (GRK4) of the same compound?
A: 94%

Q: What about the remaining binding at 1 µM (RET(V804L)) of the same compound?
A: 97%

Q: What about the remaining binding at 1 µM (SBK1) of the same compound?
A: 81%

Q: What about the remaining binding at 1 µM (SRC) of the same compound?
A: 98%

Q: And the remaining binding at 1 µM (IKK-beta)?
A: 86%

Q: And the remaining binding at 1 µM (CDC2L1)?
A: 100%

Q: What about the remaining binding at 1 µM (ACVR1) of the same compound?
A: 100%

Q: What about the remaining binding at 1 µM (IKK-alpha) of the same compound?
A: 96%

Q: And the remaining binding at 1 µM [1]?
A: 100%

Q: What about the remaining binding at 1 µM (DYRK1A) of the same compound?
A: 100%

Q: What about the remaining binding at 1 µM [2] of the same compound?
A: 96%

Q: What about the remaining binding at 1 µM (DYRK2) of the same compound?
A: 55%
